Laboratory results from patent US20050249675A1, “Mucin synthesis inhibitors” (priority 2003, published 2005).
Read-outs that look alike come from different tables or passages of the source. Each block holds one molecule with its values, some of them ahead of it.

Columns and labels:
activated Caco2 cells [1] = assay: PAS staining for mucin in activated Caco2 cells
H292 clone 15 cells [2] = assay: Alamar Blue cytotoxicity; settings: H292 clone 15 cells; 48 hours; average of 3 experiments
H292 clone 15 cells [3] = assay: ELLA for MUC5AC, H292 clone 15 cells (Example 11); assay type: cell-based, human; settings: Homo sapiens, NCI-H292; MUC5AC in conditioned media; 48 hours; average of 3 experiments
Procedure: ELLA (Enzyme-Linked Lectin Assay) was used to determine the inhibitory effect of compounds on mucus production by H292 clone 15 cells. H292 clone 15 cells, a subclone from human pulmonary mucoepidermoid carcinoma cells overexpressing hCLCA1, were grown to confluent, followed by incubation with increasing concentrations of compounds for 48 hours. Conditioned media were collected and MUC5AC (the major secretory mucin in lungs) content was determined by ELLA measurement as described below. 96 well microtiter plates were coated with a mouse monoclonal antibody against human MUC5AC (1-13M1, NeoMarkers), then incubated with test conditioned media. Bound MUC5AC was detected by horseradish peroxidase-conjugated soybean lectin that has a high affinity towards highly-glycosylated proteins such as MUC5AC. Conversion of peroxidase substrate TMB (Tetramethylbenzidine Base) was quantified by reading at 450 nm. O.D. (optical density) readings were plotted against concentrations of compounds. Linear regression was used to derive the concentration at which O.D. was reduced by 50% (IC50) when compared to vehicle-treated cells.

activated Caco2 cells [4] = settings: Caco-2
[5] = tested on: MUC5A/C secretion in hCLCA1 expressing H292 cells; assay: MUC5A/C secretion by ELLA in hCLCA1 expressing H292 cells; assay type: cell-based, human; parameters: key to ELLA: (+) = inhibition; (−) = no inhibition
[6] = tested on: murine chloride channel, mCLCA1; assay: Patch clamp chloride current, HEK293 cell expressing mCLCA1; assay type: cell-based; settings: for Chloride Current: + ionomycin + Ca
Procedure: A HEK293 cell transfected with a plasmid expressing a murine chloride channel, mCLCA1, was patch clamped and chloride current was measured over a range of voltages (V, left column) and the results are shown in Table 3 below. Each row lists currents invoked at a particular positive voltage in the absence (−) or presence (+) of ionomycin and calcium, and in the presence of an indicated concentration of diclofenac (μM). Substantial current was invoked by the addition of 2 μM ionomycin and 2 mM calcium-compare the first two columns-indicating activation of mCLCA1 by the ionomycin/calcium treatment. For example, at 100 mV of positive voltage, the chloride current was increased from 39 nA/pF to 105 nA/pF.

NCI-H292/hCLCA1 cells = assay: AB/PAS staining of mucous glycoconjugates in NCI-H292/hCLCA1 cells; assay type: cell-based, human; settings: NFA 100 μM, MFA 125 or 250 μM, talniflumate 12.5, 25 or 50 μM; vs untreated cells
Procedure: For the determination of mucous glycoconjugate production, NCI-H292/ctl and NCI-H292/hCLCA1 (AAF 15) cells were cultured in 24-well plates for 3 days. Cells were then fixed with Formalin and mucous glycoconjugates were visualized by AB/PAS staining (Sigma). […] For chloride channel blockage studies, cells were cultured in the presence of niflumic acid (NFA) (Sigma) at 100 μM concentration, mefanamic acid (MFA) at 125 or 250 μM or talniflumate at 12.5, 25 or 50 μM, or media alone.
For the determination of mucous glycoconjugate production, NCI-H292/hCLCA1 cells were cultured in 24-well plates for 3 days with at concentrations of 0 to 150 μM of the talniflumate enantiomers or media alone (control). Cells were then fixed with Formalin and mucous glycoconjugates were visualized by AB/PAS staining (Sigma). […] In this assay both enantiomers were seen to inhibit muco-glycoconjugate production at concentrations>40 μM.

SMILES: Cc1c(Cl)cccc1Nc1ccccc1C(=O)O [Tolfenamate]
Mucin production by activated Caco2 cells (activated Caco2 cells [1]; FIG. 2): inhibited

SMILES: O=C1OC(CC(=O)c2cccnc2Oc2cccc(Cl)c2)c2ccccc21 (stereo not shown) [Compound 11]
Est. LD50 (Alamar Blue) (H292 clone 15 cells [2]): 23 µM
IC50 (H292 clone 15 cells [3]): 2000 nM

SMILES: O=C1OC(CC(=O)c2cccnc2Oc2cccc(Cl)c2Cl)c2ccccc21 (stereo not shown) [Compound 13]
Est. LD50 (Alamar Blue) (H292 clone 15 cells [2]): 10 µM
IC50 (H292 clone 15 cells [3]): 1000 nM

Mucin production by activated Caco2 cells (activated Caco2 cells [4]): ineffective
SMILES: CC1=C(CC(=O)O)c2cc(F)ccc2/C1=C\c1ccc([S+](C)[O-])cc1 (stereo not shown) [Sulindac]

SMILES: O=C(CC1OC(=O)c2ccccc21)c1ccccc1Sc1ccccc1Cl (stereo not shown) [Compound 15]
Est. LD50 (Alamar Blue) (H292 clone 15 cells [2]): 15 µM
IC50 (H292 clone 15 cells [3]): 2500 nM

Mucin production by activated Caco2 cells (activated Caco2 cells [4]): partially
SMILES: Cc1ccc(Cl)c(Nc2ccccc2C(=O)O)c1Cl [Meclofenamate]

SMILES: CS(=O)(=O)Nc1ccc([N+](=O)[O-])cc1Oc1ccccc1 [Nimesulide]
Inhibition of MUC5A/C secretion / mucin production (figure legends) ([5]; hCLCA1 expressing H292 cells, 48 hours): inhibition of MUCSA/C secretion

Mucin production by activated Caco2 cells (activated Caco2 cells [4]): inhibited
SMILES: O=C(O)c1ccccc1Nc1cccc(C(F)(F)F)c1 [Flufenamate]

SMILES: O=C(CC1OC(=O)c2ccccc21)c1ccccc1Nc1cccc(C(F)(F)F)c1 (stereo not shown) [Compound 7]
Est. LD50 (Alamar Blue) (H292 clone 15 cells [2]): 69 µM
IC50 (H292 clone 15 cells [3]): 24000 nM

Mucin production by activated Caco2 cells (activated Caco2 cells [4]): ineffective
SMILES: COc1ccc2cc([C@H](C)C(=O)O)ccc2c1 [Naproxen]

SMILES: Cc1c(Cl)cccc1Nc1ccccc1C(=O)CC1OC(=O)c2ccccc21 (stereo not shown) [Compound 3]
Est. LD50 (Alamar Blue) (H292 clone 15 cells [2]): 19 µM
IC50 (H292 clone 15 cells [3]): 1200 nM

SMILES: Cc1cccc(Nc2ccccc2C(=O)CC2OC(=O)c3ccccc32)c1C (stereo not shown) [Compound 5]
Est. LD50 (Alamar Blue) (H292 clone 15 cells [2]): 35 µM
IC50 (H292 clone 15 cells [3]): 4000 nM

SMILES: Cc1cccc(Nc2ccccc2C(=O)CCc2ccccc2C(=O)O)c1C [Compound 6]
Est. LD50 (Alamar Blue) (H292 clone 15 cells [2]): 27 µM
IC50 (H292 clone 15 cells [3]): 3000 nM

SMILES: O=C1OC(CC(=O)c2cccnc2Oc2ccccc2)c2ccccc21 (stereo not shown) [Compound 9]
Est. LD50 (Alamar Blue) (H292 clone 15 cells [2]): 43 µM
IC50 (H292 clone 15 cells [3]): 5000 nM

SMILES: O=C(O)Cc1ccccc1Nc1c(Cl)cccc1Cl [diclofenac]
Inhibition of chloride channel activity ([6]; diclofenac 5 μM to 50 μM): did not inhibit chloride channel activity
Chloride Current ([6]; diclofenac 5 μM, 0 mV): 20 nA/pF
Chloride Current ([6]; diclofenac 5 μM, 20 mV): 36 nA/pF
Chloride Current ([6]; diclofenac 5 μM, 40 mV): 53 nA/pF
Chloride Current ([6]; diclofenac 5 μM, 60 mV): 72 nA/pF
Chloride Current ([6]; diclofenac 5 μM, 80 mV): 92 nA/pF
Chloride Current ([6]; diclofenac 5 μM, 100 mV): 115 nA/pF
Chloride Current ([6]; diclofenac 20 μM, 0 mV): 20 nA/pF
Chloride Current ([6]; diclofenac 20 μM, 20 mV): 34 nA/pF
Chloride Current ([6]; diclofenac 20 μM, 40 mV): 51 nA/pF
Chloride Current ([6]; diclofenac 20 μM, 60 mV): 69 nA/pF
Chloride Current ([6]; diclofenac 20 μM, 80 mV): 88 nA/pF
Chloride Current ([6]; diclofenac 20 μM, 100 mV): 109 nA/pF
Chloride Current ([6]; diclofenac 50 μM, 0 mV): 19 nA/pF
Chloride Current ([6]; diclofenac 50 μM, 20 mV): 33 nA/pF
Chloride Current ([6]; diclofenac 50 μM, 40 mV): 48 nA/pF
Chloride Current ([6]; diclofenac 50 μM, 60 mV): 66 nA/pF
Chloride Current ([6]; diclofenac 50 μM, 80 mV): 85 nA/pF
Chloride Current ([6]; diclofenac 50 μM, 100 mV): 106 nA/pF

SMILES: O=C(O)c1ccccc1CCC(=O)c1cccnc1Oc1ccccc1 [Compound 10]
Est. LD50 (Alamar Blue) (H292 clone 15 cells [2]): 885 µM
IC50 (H292 clone 15 cells [3]): 44000 nM

SMILES: Cc1c(Cl)cccc1Nc1ccccc1C(=O)CCc1ccccc1C(=O)O [Compound 4]
Est. LD50 (Alamar Blue) (H292 clone 15 cells [2]): 27 µM
IC50 (H292 clone 15 cells [3]): 1600 nM

SMILES: O=C1OC(OC(=O)c2cccnc2Nc2cccc(C(F)(F)F)c2)c2ccccc21 (single isomer, unassigned; enantiomer 2) [enantiomer 2]
IC50 ([5]; NCI-H292/hCLCA1 cells, 0 through 150 μM, 48 hours, FIG. 26, read-out: IC50, inhibition of MUC5A/C secretion): 40000 nM

SMILES: O=S(=O)(O)c1cc(N=C=S)ccc1C=Cc1ccc(N=C=S)cc1S(=O)(=O)O [DIDS, 4,4′-diisothiocyanostilbene-2,2′-disulfonic acid]
PAS positive staining mucin glycoconjugates (activated Caco2 cells [1]; activated Caco2 cells, 100 μm for NFA and 300 μm for DIDS, vs untreated cells): significantly fewer positive staining mucin glycoconjugates

SMILES: O=C1OC(CC(=O)c2cccnc2Oc2cccc(Br)c2)c2ccccc21 (stereo not shown) [Compound 14]
Est. LD50 (Alamar Blue) (H292 clone 15 cells [2]): 16 µM
IC50 (H292 clone 15 cells [3]): 2300 nM

Mucin production by activated Caco2 cells (activated Caco2 cells [4]): partially
SMILES: Cc1cccc(Nc2ccccc2C(=O)O)c1C [Mefenamate]
PAS positive staining muco-glycoconjugates (NCI-H292/hCLCA1 cells): significantly fewer positive staining muco-glycoconjugates

SMILES: O=C(O)c1ccccc1CCC(=O)c1ccccc1Nc1cccc(C(F)(F)F)c1 [Compound 8]
Est. LD50 (Alamar Blue) (H292 clone 15 cells [2]): 30 µM
IC50 (H292 clone 15 cells [3]): 10000 nM

SMILES: O=C1OC(CC(=O)c2cccnc2Oc2ccc(F)cc2F)c2ccccc21 (stereo not shown) [Compound 12]
Est. LD50 (Alamar Blue) (H292 clone 15 cells [2]): 22 µM
IC50 (H292 clone 15 cells [3]): 1900 nM

SMILES: COC(=O)c1ccccc1/C=C/C(=O)c1cccnc1Nc1cccc(C(F)(F)F)c1 [Compound 2]
Est. LD50 (Alamar Blue) (H292 clone 15 cells [2]): 16 µM
IC50 (H292 clone 15 cells [3]): 4000 nM

SMILES: O=C1OC(OC(=O)c2cccnc2Nc2cccc(C(F)(F)F)c2)c2ccccc21 (single isomer, unassigned; enantiomer 1) [enantiomer 1]
IC50, inhibition of MUC5A/C secretion ([5]; NCI-H292/hCLCA1 cells, 0 through 150 μM, 48 hours, FIG. 26): not inhibitory

SMILES: COC(=O)c1cccnc1Nc1cccc(C(F)(F)F)c1 [1 (MSI 2213), Niflumic acid methyl ester]
ELLA ([5]; Table 2, mucin production): −

SMILES: O=C(CC1OC(=O)c2ncccc21)c1cccnc1Nc1cccc(C(F)(F)F)c1 (stereo not shown) [Compound 1]
Est. LD50 (Alamar Blue) (H292 clone 15 cells [2]): 11 µM
IC50 (H292 clone 15 cells [3]): 2000 nM
